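Tested at 5 concentrations; 48 h exposure; 96-well plates; endpoints linearly interpolated, else capped at highest concentration. GI50 = concentration required for 50% inhibition of growth. TGI: total growth inhibition.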
Experiments:
Experiment in all cases: DTP human tumour cell line panel, 48 h
786-0 renal = system: 786-0 renal
A498 renal = system: A498 renal
A549 NSCLC = system: A549 NSCLC
ACHN renal = system: ACHN renal
BT-549 breast = system: BT-549 breast
CAKI-1 renal = system: CAKI-1 renal
CCRF-CEM leukemia = system: CCRF-CEM leukemia
COLO 205 colon = system: COLO 205 colon
DU-145 prostate = system: DU-145 prostate
EKVX NSCLC = system: EKVX NSCLC
HCC-2998 colon = system: HCC-2998 colon
HCT-116 colon = system: HCT-116 colon
HCT-15 colon = system: HCT-15 colon
HL-60(TB) leukemia = system: HL-60(TB) leukemia
HOP-62 NSCLC = system: HOP-62 NSCLC
HOP-92 NSCLC = system: HOP-92 NSCLC
HS 578T breast = system: HS 578T breast
HT29 colon = system: HT29 colon
IGROV1 ovarian = system: IGROV1 ovarian
K-562 leukemia = system: K-562 leukemia
KM12 colon = system: KM12 colon
LOX IMVI melanoma = system: LOX IMVI melanoma
MALME-3M melanoma = system: MALME-3M melanoma
MCF7 breast = system: MCF7 breast
MDA-MB-231 breast = system: MDA-MB-231 breast
MDA-MB-435 = system: MDA-MB-435
MOLT-4 leukemia = system: MOLT-4 leukemia
NCI-H23 lung = system: NCI-H23 lung
NCI-H460 lung = system: NCI-H460 lung
NCI-H522 lung = system: NCI-H522 lung
NCI/ADR-RES ovarian = system: NCI/ADR-RES ovarian
OVCAR-3 ovarian = system: OVCAR-3 ovarian
OVCAR-4 ovarian = system: OVCAR-4 ovarian
OVCAR-5 ovarian = system: OVCAR-5 ovarian
OVCAR-8 ovarian = system: OVCAR-8 ovarian
PC-3 prostate = system: PC-3 prostate
RPMI-8226 leukemia = system: RPMI-8226 leukemia
RXF 393 renal = system: RXF 393 renal
SF-268 CNS = system: SF-268 CNS
SF-295 CNS = system: SF-295 CNS
SF-539 CNS = system: SF-539 CNS
SK-MEL-2 melanoma = system: SK-MEL-2 melanoma
SK-MEL-28 melanoma = system: SK-MEL-28 melanoma
SK-MEL-5 melanoma = system: SK-MEL-5 melanoma
SK-OV-3 ovarian = system: SK-OV-3 ovarian
SN12C renal = system: SN12C renal
SNB-19 CNS = system: SNB-19 CNS
SNB-75 CNS = system: SNB-75 CNS
SR leukemia = system: SR leukemia
T-47D breast = system: T-47D breast
TK-10 renal = system: TK-10 renal
U251 CNS = system: U251 CNS
UACC-257 melanoma = system: UACC-257 melanoma
UACC-62 melanoma = system: UACC-62 melanoma
UO-31 renal = system: UO-31 renal

SMILES: CCOC(=O)c1ccc2c(c1)nc(-c1ccc(Cl)cc1)n2-c1cc(C(C)(C)C)[nH]n1
- GI50 (786-0 renal): 3.17 µM
- TGI (786-0 renal): > 100 µM
- GI50 (A498 renal): 2.19 µM
- TGI (A498 renal): 6.51 µM
- GI50 (A549 NSCLC): 3.13 µM
- TGI (A549 NSCLC): > 100 µM
- GI50 (ACHN renal): 3.28 µM
- TGI (ACHN renal): 10.1 µM
- GI50 (BT-549 breast): 2.88 µM
- TGI (BT-549 breast): 8.4 µM
- GI50 (CAKI-1 renal): 2.77 µM
- TGI (CAKI-1 renal): > 100 µM
- GI50 (CCRF-CEM leukemia): 3.06 µM
- TGI (CCRF-CEM leukemia): 34.1 µM
- GI50 (COLO 205 colon): 2.23 µM
- TGI (COLO 205 colon): 4.75 µM
- GI50 (DU-145 prostate): 2.85 µM
- GI50 (EKVX NSCLC): 3.02 µM
- TGI (EKVX NSCLC): > 100 µM
- GI50 (HCC-2998 colon): 3.03 µM
- TGI (HCC-2998 colon): 16.2 µM
- GI50 (HCT-116 colon): 3.12 µM
- TGI (HCT-116 colon): 29.9 µM
- GI50 (HCT-15 colon): 3.27 µM
- TGI (HCT-15 colon): > 100 µM
- GI50 (HL-60(TB) leukemia): 3.65 µM
- TGI (HL-60(TB) leukemia): 9.2 µM
- GI50 (HOP-62 NSCLC): 3.69 µM
- TGI (HOP-62 NSCLC): > 100 µM
- GI50 (HOP-92 NSCLC): 1.02 µM
- TGI (HOP-92 NSCLC): 4.79 µM
- GI50 (HS 578T breast): 2.76 µM
- TGI (HS 578T breast): 8.57 µM
- GI50 (HT29 colon): 2.79 µM
- TGI (HT29 colon): 7.17 µM
- GI50 (IGROV1 ovarian): 3.77 µM
- TGI (IGROV1 ovarian): > 100 µM
- GI50 (K-562 leukemia): 2.72 µM
- TGI (K-562 leukemia): 16.1 µM
- GI50 (KM12 colon): 2.78 µM
- TGI (KM12 colon): 14.2 µM
- GI50 (LOX IMVI melanoma): 2.73 µM
- TGI (LOX IMVI melanoma): 10.8 µM
- GI50 (MALME-3M melanoma): 2.75 µM
- TGI (MALME-3M melanoma): 9.18 µM
- GI50 (MCF7 breast): 2.78 µM
- TGI (MCF7 breast): 12.2 µM
- GI50 (MDA-MB-231 breast): 4.2 µM
- TGI (MDA-MB-231 breast): 40.8 µM
- GI50 (MDA-MB-435): 0.717 µM
- TGI (MDA-MB-435): 7.1 µM
- GI50 (MOLT-4 leukemia): 3.28 µM
- TGI (MOLT-4 leukemia): 30.4 µM
- GI50 (NCI-H23 lung): 2.72 µM
- TGI (NCI-H23 lung): > 100 µM
- GI50 (NCI-H460 lung): 2.94 µM
- TGI (NCI-H460 lung): 8.02 µM
- GI50 (NCI-H522 lung): 2.52 µM
- TGI (NCI-H522 lung): 6.66 µM
- GI50 (NCI/ADR-RES ovarian): 2.13 µM
- TGI (NCI/ADR-RES ovarian): 6.65 µM
- GI50 (OVCAR-3 ovarian): 2.05 µM
- TGI (OVCAR-3 ovarian): 5.65 µM
- GI50 (OVCAR-4 ovarian): 3.64 µM
- TGI (OVCAR-4 ovarian): > 100 µM
- GI50 (OVCAR-5 ovarian): 3.68 µM
- TGI (OVCAR-5 ovarian): > 100 µM
- GI50 (OVCAR-8 ovarian): 2.55 µM
- TGI (OVCAR-8 ovarian): 12.7 µM
- GI50 (PC-3 prostate): 2.82 µM
- TGI (PC-3 prostate): > 100 µM
- GI50 (RPMI-8226 leukemia): 2.99 µM
- TGI (RPMI-8226 leukemia): 22.9 µM
- GI50 (RXF 393 renal): 1.81 µM
- TGI (RXF 393 renal): 5.87 µM
- GI50 (SF-268 CNS): 3.13 µM
- TGI (SF-268 CNS): 13.8 µM
- GI50 (SF-295 CNS): 2.62 µM
- TGI (SF-295 CNS): 11.4 µM
- GI50 (SF-539 CNS): 2.16 µM
- TGI (SF-539 CNS): 4.99 µM
- GI50 (SK-MEL-2 melanoma): 1.93 µM
- TGI (SK-MEL-2 melanoma): 4.4 µM
- GI50 (SK-MEL-28 melanoma): 2.49 µM
- TGI (SK-MEL-28 melanoma): 12.2 µM
- GI50 (SK-MEL-5 melanoma): 1.33 µM
- TGI (SK-MEL-5 melanoma): 3.39 µM
- GI50 (SK-OV-3 ovarian): 3.43 µM
- TGI (SK-OV-3 ovarian): 36.9 µM
- GI50 (SN12C renal): 3.33 µM
- TGI (SN12C renal): 40.6 µM
- GI50 (SNB-19 CNS): 3.32 µM
- TGI (SNB-19 CNS): > 100 µM
- GI50 (SNB-75 CNS): 2.53 µM
- TGI (SNB-75 CNS): > 100 µM
- GI50 (SR leukemia): 0.635 µM
- TGI (SR leukemia): 8.16 µM
- GI50 (T-47D breast): 3.78 µM
- TGI (T-47D breast): > 100 µM
- GI50 (TK-10 renal): 3.62 µM
- TGI (TK-10 renal): > 100 µM
- GI50 (U251 CNS): 3.04 µM
- TGI (U251 CNS): > 100 µM
- GI50 (UACC-257 melanoma): 3.41 µM
- TGI (UACC-257 melanoma): > 100 µM
- GI50 (UACC-62 melanoma): 1.67 µM
- TGI (UACC-62 melanoma): 4 µM
- GI50 (UO-31 renal): 2.76 µM
- TGI (UO-31 renal): 45.7 µM

Source: PubChem BioAssay (NCI)
